According to patent US10433551B2, “3-pyridyloxyphenyldihydrouracil compound and use thereof” (Sumitomo Chemical Company, Limited, priority 2016, dated 2019):

Legend:
Format in all cases: cell-based
[1] = system: cucumber phytophthora blight fungi (Phytophthora capsici); test: Test for controlling cucumber phytophthora blight fungi, growth in titer plate (absorbance 600 nm); conditions: Test Example 1; 4.5 mg in 100 μL DMSO, 1 μL in 150 μL PDB medium with zoospores; 27° C., three days
Protocol: (§1) In the test examples 1 to 4, a non-treated area means an area in which a test was conducted in the same manner as each test example, except that dimethyl sulfoxide was dispensed in place of the present compound diluted with dimethyl sulfoxide.
Four point five (4.5) milligrams of the present compound was diluted with 100 μL of dimethyl sulfoxide. One (1) μL portion of the diluted liquid was dispensed into a titer plate (96 wells), and thereto was then dispensed 150 μL of a potato dextrose broth medium (PDB medium) containing zoospores of cucumber phytophthora blight fungi (Phytophthora capsici). This plate was cultured at 27° C. for three days, thereby allowing the cucumber phytophthora blight fungi to undergo proliferation, and the absorbance at 600 nm of each well of the titer plate was then measured to determine a degree of growth of the cucumber phytophthora blight fungi. The efficacy was calculated from the determined degree of growth by the below-mentioned “Equation 1”. As a result, the efficacy of the Present compound was 90% or more. Efficacy=100×(X−Y)/X “Equation 1” where X: Degree of fungal growth in non-treated area Y: Degree of fungal growth in treated area

[2] = system: damping-off fungi (Pythium ultimum); test: Test for controlling damping-off fungi, growth in titer plate (absorbance 600 nm); conditions: 1 μL in 150 μL Czapek medium with mycelial suspension, 23° C., five days
Protocol: as §1
(§2) Four point five (4.5) milligrams of the present compound was diluted with 100 μL of dimethyl sulfoxide. One (1) μL portion of the diluted liquid was dispensed into a titer plate (96 wells), and thereto was then dispensed 150 μL of a potato dextrose broth medium (PDB medium) containing zoospores of cucumber phytophthora blight fungi (Phytophthora capsici). This plate was cultured at 27° C. for three days, thereby allowing the cucumber phytophthora blight fungi to undergo proliferation, and the absorbance at 600 nm of each well of the titer plate was then measured to determine a degree of growth of the cucumber phytophthora blight fungi. The efficacy was calculated from the determined degree of growth by the below-mentioned “Equation 1”. […]
(§3) Four point five (4.5) milligrams of the present compound was diluted with 100 μL of dimethyl sulfoxide. […] This plate was cultured at 23° C. for five days, thereby allowing the damping-off fungi to undergo proliferation, and the absorbance at 600 nm of each well of the titer plate was then measured to determine a degree of growth of the damping-off fungi. […]

[3] = system: barley scald fungi (Rhynchosporium secalis); test: Test for controlling barley scald fungi, growth in titer plate (absorbance 600 nm); conditions: Test Example 4; 4.5 mg in 100 μL DMSO, 1 μL in 150 μL PDB medium with spores; 18° C., seven days
Protocol: as §1, §2
as §3, with “at 18°” for “at 23°”, “for seven” for “for five”, “the barley scald” for “the damping-off”

Measured: efficacy

CCOC(=O)COc1ncccc1Oc1cc(N2C(=O)CC(O)(C(F)(F)F)NC2=O)c(F)cc1Cl (stereo not shown) [Present compound]
≥ 90%: [1] | [2]; Test Example 2, 4.5 mg in 100 μL DMSO | [2]; Test Example 3, 1.12 mg in 100 μL DMSO | [3]
